Experimental data as given in patent US6337346B1 (University of North Carolina at Chapel Hill, priority 1998, dated 2002).
≈ marks a conversion by molar mass, not a printed value. Read-outs that look alike come from different tables or passages of the source.

Key:
KB cells [1] = test: Preliminary KB cell assay (cytotoxicity); assay type: cell-based; conditions: Homo sapiens, numbering of Examples 14-16, read-out: ED50 (the source's name)
Protocol: Many anthraquinones, including mitoxantrone (1), show antineoplastic activity (Zee-Cheng, R. Y.; Podrebarac, E. G; Menon, C. S.; Cheng, C. C. J. Med. Chem. 1979, 22, 501-505). In addition, the natural product 2-acetyl-4H, 9H-naphtho[2,3-b]furan-4,9-dione (2) isolated from Tabebuia cassinoids (Lam.) DC.
The unsubstituted (3), two mono-acetyl (5, 6), and two di-acetyl (9, 10) derivatives were tested for cytotoxicity in a preliminary KB cell assay.

CAKI-1 = test: Preliminary cytotoxicity testing of 6 and 16 (Table 1); assay type: cell-based; conditions: Homo sapiens, Table 1, preliminary testing
KB = test: as above; assay type: cell-based; conditions: Homo sapiens, Table 1, preliminary testing
A549 = test: as above; assay type: cell-based; conditions: Homo sapiens, Table 1, preliminary testing
MCF-7 = test: as above; assay type: cell-based; conditions: Homo sapiens, MCF7, Table 1, preliminary testing
HCT-8 = test: as above; assay type: cell-based; conditions: Homo sapiens, Table 1, preliminary testing
[2] = tested on: several leukemia cell lines; test: Preliminary cytotoxicity testing, summary in words; assay type: cell-based
SK-MEL-2 [3] = test: Preliminary cytotoxicity testing of 6 and 16 (Table 1); assay type: cell-based; conditions: Homo sapiens, Table 1, preliminary testing
human tumor cell lines [4] = test: NCI in vitro screen, mean over all cell lines tested; conditions: Homo sapiens, read-out: Cytotoxicity log GI50, Mean Value (converted)
Source text: (§1) (Activity is defined as log GI50<−4 where GI50 is the molar concentration causing 50% cell growth inhibition).

MDA-MB-435 = test: NCI in vitro disease-oriented tumor cells screen; assay type: cell-based, human; conditions: Homo sapiens, Breast Cancer MDA-MB-435, average of at least two testings, read-out: Cytotoxicity log GI50 (converted)
Source text: as §1

CCRF-CEM = test: NCI in vitro human tumor cell line assay; assay type: cell-based; conditions: Leukemia CCRF-CEM, Table 3 (numbering of Examples 14-16), average of at least two testings, read-out: Cytotoxicity log GI50 (converted)
OVCAR-3 = test: NCI in vitro disease-oriented tumor cells screen; assay type: cell-based, human; conditions: Homo sapiens, Ovarian Cancer OVCAR-3, average of at least two testings, read-out: Cytotoxicity log GI50 (converted)
Source text: as §1

NCI-H552 = test: NCI in vitro human tumor cell line assay; assay type: cell-based; conditions: Non-Small Cell Lung Cancer NCI-H552, Table 3 (numbering of Examples 14-16), average of at least two testings, read-out: Cytotoxicity log GI50 (converted)
NCI-H23 = test: NCI in vitro disease-oriented tumor cells screen; assay type: cell-based, human; conditions: Homo sapiens, Non-Small Cell Lung Cancer NCI-H23, average of at least two testings, read-out: Cytotoxicity log GI50 (converted)
Source text: as §1

LOX IMVI = test: NCI in vitro disease-oriented tumor cells screen; assay type: cell-based, human; conditions: Homo sapiens, Melanoma LOX IMVI, average of at least two testings, read-out: Cytotoxicity log GI50 (converted)
Source text: as §1

MCF 7 = test: NCI in vitro human tumor cell line assay; assay type: cell-based; conditions: MCF7, Breast Cancer MCF 7, Table 3 (numbering of Examples 14-16), average of at least two testings, read-out: Cytotoxicity log GI50 (converted)
IGROV1 = test: NCI in vitro human tumor cell line assay; assay type: cell-based; conditions: IGROV-1, Ovarian Cancer IGROV1, Table 3 (numbering of Examples 14-16), average of at least two testings, read-out: Cytotoxicity log GI50 (converted)
SNB-19 = test: NCI in vitro human tumor cell line assay; assay type: cell-based; conditions: CNS Cancer SNB-19, Table 3 (numbering of Examples 14-16), average of at least two testings, read-out: Cytotoxicity log GI50 (converted)
MOLT-4 [5] = test: NCI in vitro human tumor cell line assay; conditions: MOLT-4, read-out: Cytotoxicity log GI50 (converted)
SF-539 = test: NCI in vitro human tumor cell line assay; assay type: cell-based; conditions: CNS Cancer SF-539, Table 3 (numbering of Examples 14-16), average of at least two testings, read-out: Cytotoxicity log GI50 (converted)
SK-MEL-5 = test: NCI in vitro disease-oriented tumor cells screen; assay type: cell-based, human; conditions: Homo sapiens, Melanoma SK-MEL-5, average of at least two testings, read-out: Cytotoxicity log GI50 (converted)
Source text: as §1

SW-620 = test: NCI in vitro human tumor cell line assay; assay type: cell-based; conditions: Colon Cancer SW-620, Table 3 (numbering of Examples 14-16), average of at least two testings, read-out: Cytotoxicity log GI50 (converted)
NCI-H460 = test: NCI in vitro human tumor cell line assay; assay type: cell-based; conditions: Non-Small Cell Lung Cancer NCI-H460, Table 3 (numbering of Examples 14-16), average of at least two testings, read-out: Cytotoxicity log GI50 (converted)
HCT-15 = test: NCI in vitro human tumor cell line assay; assay type: cell-based; conditions: Colon Cancer HCT-15, Table 3 (numbering of Examples 14-16), average of at least two testings, read-out: Cytotoxicity log GI50 (converted)
KB cells [6] = conditions: KB cells; background, numbering of Examples 1-13; cited from earlier work
MDA-N = test: NCI in vitro disease-oriented tumor cells screen; assay type: cell-based, human; conditions: Homo sapiens, Breast Cancer MDA-N, average of at least two testings, read-out: Cytotoxicity log GI50 (converted)
Source text: as §1

MCF 7/ADR-RES = test: NCI in vitro human tumor cell line assay; assay type: cell-based; conditions: MCF7, Breast Cancer MCF 7/ADR-RES, Table 3 (numbering of Examples 14-16), average of at least two testings, read-out: Cytotoxicity log GI50 (converted)
HL-60(TB) = test: NCI in vitro disease-oriented tumor cells screen; assay type: cell-based, human; conditions: Homo sapiens; Leukemia HL-60(TB); Table 2; average of at least two testings; read-out: Cytotoxicity log GI50 (converted)
Source text: as §1

M14 = test: NCI in vitro disease-oriented tumor cells screen; assay type: cell-based, human; conditions: Homo sapiens; Melanoma M14; Table 2; average of at least two testings; read-out: Cytotoxicity log GI50 (converted)
Source text: as §1

UACC-62 = test: NCI in vitro disease-oriented tumor cells screen; assay type: cell-based, human; conditions: Homo sapiens; Melanoma UACC-62; Table 2; average of at least two testings; read-out: Cytotoxicity log GI50 (converted)
Source text: as §1

UACC-257 = test: NCI in vitro disease-oriented tumor cells screen; assay type: cell-based, human; conditions: Homo sapiens; Melanoma UACC-257; Table 2; average of at least two testings; read-out: Cytotoxicity log GI50 (converted)
Source text: as §1

melanoma cell lines = test: NCI in vitro screen, melanoma cell lines as a group; assay type: cell-based, human; conditions: numbering of Examples 1-13
Source text: as §1

SK-MEL-28 = test: NCI in vitro disease-oriented tumor cells screen; assay type: cell-based, human; conditions: Homo sapiens; Melanoma SK-MEL-28; Table 2; average of at least two testings; read-out: Cytotoxicity log GI50 (converted)
Source text: as §1

MALME-3M = test: NCI in vitro disease-oriented tumor cells screen; assay type: cell-based, human; conditions: Homo sapiens; Melanoma MALME-3M; Table 2; average of at least two testings; read-out: Cytotoxicity log GI50 (converted)
Source text: as §1

HS 578T = test: NCI in vitro disease-oriented tumor cells screen; assay type: cell-based, human; conditions: Homo sapiens; Breast Cancer HS 578T; Table 2; average of at least two testings; read-out: Cytotoxicity log GI50 (converted)
Source text: as §1

BT-549 = test: NCI in vitro disease-oriented tumor cells screen; assay type: cell-based, human; conditions: Homo sapiens; Breast Cancer BT-549; Table 2; average of at least two testings; read-out: Cytotoxicity log GI50 (converted)
Source text: as §1

OVCAR-8 = test: NCI in vitro disease-oriented tumor cells screen; assay type: cell-based, human; conditions: Homo sapiens; Ovarian Cancer OVCAR-8; Table 2; average of at least two testings; read-out: Cytotoxicity log GI50 (converted)
Source text: as §1

SK-MEL-2 [7] = test: NCI in vitro disease-oriented tumor cells screen; assay type: cell-based, human; conditions: Homo sapiens; Melanoma SK-MEL-2; Table 2; average of at least two testings; read-out: Cytotoxicity log GI50 (converted)
Source text: as §1

human tumor cell lines [8] = tested on: human tumor cell lines
Source text: as §1

L-1210 = test: Preliminary cytotoxicity testing of 6 and 16 (Table 1); assay type: cell-based; conditions: Mus musculus, L1210, Table 1, preliminary testing
P-399 = test: as above; assay type: cell-based; conditions: Table 1, preliminary testing
MOLT-4 [9] = conditions: human
[10] = Table 3 (numbering of Examples 14-16)
[11] = Table 2 (numbering of Examples 1-13)

SMILES | EC50 (KB cells [1]) [µM] | IC50 (CAKI-1) [µg/mL] | IC50 (KB) [µg/mL] | IC50 (A549) [µg/mL] | IC50 (MCF-7) [µg/mL] | IC50 (HCT-8) [µg/mL] | activity against several leukemia cell lines (in words) [2] | GI50 (human tumor cell lines [4]) [µM] | GI50 (MDA-MB-435; [10]) [µM] | GI50 (CCRF-CEM) [µM] | GI50 (OVCAR-3; [10]) [µM] | GI50 (NCI-H552) [µM] | GI50 (NCI-H23; [10]) [µM] | GI50 (LOX IMVI; [10]) [µM] | GI50 (MCF 7) [µM] | GI50 (IGROV1) [µM] | GI50 (SNB-19) [µM] | GI50 (MOLT-4 [5]) [µM] | GI50 (SF-539) [µM] | melting point [°C] | other results
O=C1c2ccccc2C(=O)c2sccc21 [Compound 3, naphtho[2,3-b]thiophene-4,9-dione, reference compound] | 6.5 | – | – | – | – | – | – | – | – | – | – | – | – | – | – | – | – | – | – | – | –
O=C1c2ccsc2C(=O)c2sccc21 [Compound 16] | – | 0.11 (≈ 0.499 µM) | 0.05 (≈ 0.227 µM) | 0.032 (≈ 0.145 µM) | < 0.016 | 0.032 (≈ 0.145 µM) | significant activity | – | – | – | – | – | – | – | – | – | – | – | – | – | IC50 (SK-MEL-2 [3]): 0.06 µg/mL (≈ 0.272 µM)
CC(=O)c1cc2c(s1)C(=O)c1ccccc1C2=O [Compound 5, 2-Acetyl-naphtho[2,3-b]thiophene-4,9-dione] | ~1.5 | – | – | – | – | – | – | 1.95 | 0.339 | 1 | 0.501 | 0.407 | 0.447 | 0.347 | 1.7 | 1.78 | 0.501 | 2.04 | 0.759 | 139 to 140 | GI50 (SK-MEL-5; [10]): 0.347 µM; GI50 (SW-620): 0.457 µM; GI50 (NCI-H460): 0.457 µM; GI50 (HCT-15): 0.708 µM; ED50 (KB cells [6]): 0.4 µg/mL (≈ 1.56 µM); GI50 (MDA-N; [10]): 1.2 µM; GI50 (MCF 7/ADR-RES): 1.91 µM
CC(=O)OC(C)c1cc2c(s1)C(=O)c1c(C(C)OC(C)=O)csc1C2=O (stereo not drawn) [Compound 15, 2,7-Bis(1′-acetoxyethyl)-4,8-dihydrobenzo[1,2-b:4,5-b′]dithiophene-4,8-dione] | – | – | – | – | – | – | – | 1.2 | – | – | – | – | – | – | – | – | – | – | – | 180 to 182 | GI50 (HL-60(TB)): 0.0676 µM; GI50 (MDA-MB-435; [11]): 0.186 µM; GI50 (M14): 0.513 µM; GI50 (UACC-62): 1.1 µM; GI50 (OVCAR-3; [11]): 0.275 µM; GI50 (UACC-257): 0.631 µM; GI50 (NCI-H23; [11]): 0.871 µM; potency / selectivity towards melanoma cell lines (in words) (melanoma cell lines): not selective towards melanoma cell lines; GI50 (SK-MEL-28): 1.66 µM; GI50 (MALME-3M): 0.186 µM; GI50 (HS 578T): 2.09 µM; GI50 (LOX IMVI; [11]): 1.58 µM; GI50 (BT-549): 2.14 µM; GI50 (OVCAR-8): 0.457 µM; GI50 (SK-MEL-2 [7]): 1.55 µM; overall cytotoxicity / potency (in words) (human tumor cell lines [8]): less active in all cell lines; GI50 (SK-MEL-5; [11]): 0.631 µM; GI50 (MDA-N; [11]): 0.214 µM
CC(=O)c1csc2c1C(=O)c1ccccc1C2=O [Compound 6, 3-Acetyl-naphtho[2,3-b]thiophene-4,9-dione] | 5 | 0.28 (≈ 1.09 µM) | 0.058 (≈ 0.226 µM) | 0.048 (≈ 0.187 µM) | 0.09 (≈ 0.351 µM) | 0.06 (≈ 0.234 µM) | significant activity | 2.14 | 0.324 | 1.55 | 3.55 | 1.74 | 1.05 | 2.34 | 2.09 | 2.45 | 1.78 | < 0.01 | 2.04 | 244 to 245 | IC50 (L-1210): 0.32 µg/mL (≈ 1.25 µM); IC50 (P-399): < 0.1 µg/mL; GI50 (SK-MEL-5; [10]): 0.17 µM; GI50 (SW-620): 2.19 µM; GI50 (NCI-H460): 1.32 µM; GI50 (HCT-15): 17.4 µM; Cytotoxicity log GI50 (MOLT-4 [9]): <−8.00 M; GI50 (MDA-N; [10]): 0.933 µM; GI50 (MCF 7/ADR-RES): 2.88 µM
